Values quoted from earlier work in patent US20240315993A1, “ANTIPARASITIC COMPOUNDS” (Intervet Inc., priority 2021, published 2024).

Experiments:
[1] = tested on: Beet Armyworm (Spodoptera exigua); settings: Beet Armyworm second instar larvae, 128-well diet tray, 50 μg/cm^2, five to seven days, average of eight wells; cited from earlier work
[2] = tested on: Cabbage Looper (Trichoplusia ni); settings: Cabbage Looper second instar larvae, 128-well diet tray, 50 μg/cm^2, five to seven days, average of eight wells; cited from earlier work
[3] = tested on: Yellow Fever Mosquito (Aedes aegypti); settings: Aedes aegypti larvae about 1 day old, 96-well plate, scored after 3 days; cited from earlier work

SMILES	Test A: Bioassay on BAW, percent mortality rating [1]	Test B: Bioassay on CL, percent mortality rating [2]	Test C: Bioassay on Yellow Fever Mosquito, mortality rating [3]
Cc1c(NC(=O)c2cc(NC(=O)C3C(c4cc(Cl)cc(Cl)c4)C3(Cl)Cl)ccc2Cl)ccc2[nH]ccc12 (stereo not drawn) [c69]	A (50-100)	A (50-100)	A (80-100)
CC(C)(C)c1cc2cc(NC(=O)c3cc(NC(=O)C4C(c5cc(Cl)cc(Cl)c5)C4(Cl)Cl)ccc3Cl)ccc2[nH]1 (stereo not drawn) [c70]	A (50-100)	A (50-100)	A (80-100)
COC(=O)C(O)(c1ccc(NC(=O)c2cc(NC(=O)C3C(c4cc(Cl)cc(Cl)c4)C3(Cl)Cl)ccc2Cl)c(C)c1)C(F)(F)F (stereo not drawn) [c71]	A (50-100)	A (50-100)	A (80-100)
C=C(c1ccc(NC(=O)c2cc(NC(=O)C3C(c4cc(Cl)cc(Cl)c4)C3(Cl)Cl)ccc2Cl)c(C)c1)C(F)(F)F (stereo not drawn) [c72]	A (50-100)	A (50-100)	B (More than 0 - Less than 80)
CCn1ccc2cc(NC(=O)c3cc(NC(=O)C4C(c5cc(Cl)cc(Cl)c5)C4(Cl)Cl)ccc3Cl)ccc21 (stereo not drawn) [c73]	A (50-100)	A (50-100)	A (80-100)
Cc1cc(NC(=O)OC(C)(C)C)ccc1NC(=O)c1cccc(NC(=O)C2C(c3cc(Cl)c(Cl)c(Cl)c3)C2(Cl)Cl)c1 (stereo not drawn) [c74]	A (50-100)	A (50-100)	B (More than 0 - Less than 80)
Cc1cc(NC(=O)OC(C)(C)C)ccc1NC(=O)c1cccc(NC(=O)C2C(c3cc(Cl)cc(Cl)c3)C2(Cl)Cl)c1 (stereo not drawn) [c75]	A (50-100)	A (50-100)	B (More than 0 - Less than 80)
Cc1cc(N)ccc1NC(=O)c1cccc(NC(=O)C2C(c3cc(Cl)c(Cl)c(Cl)c3)C2(Cl)Cl)c1 (stereo not drawn) [c76]	A (50-100)	A (50-100)	A (80-100)
Cc1cc(N)ccc1NC(=O)c1cccc(NC(=O)C2C(c3ccc(Cl)c(Cl)c3)C2(Cl)Cl)c1 (stereo not drawn) [c77]	A (50-100)	A (50-100)	A (80-100)
Cc1cc(N)ccc1NC(=O)c1cccc(NC(=O)C2C(c3cc(Cl)cc(Cl)c3)C2(Cl)Cl)c1 (stereo not drawn) [c78]	A (50-100)	A (50-100)	A (80-100)
O=C(Nc1ccccc1)c1cc(NC(=O)C2C(c3cc(Cl)cc(Cl)c3)C2(Cl)Cl)cc(Cl)c1Cl (stereo not drawn) [c79]	A (50-100)	A (50-100)	A (80-100)
CNc1ccc(NC(=O)c2cc(NC(=O)C3C(c4cc(Cl)cc(Cl)c4)C3(Cl)Cl)cc(Cl)c2Cl)cc1 (stereo not drawn) [c80]	A (50-100)	A (50-100)	A (80-100)
Cc1cc(NC(=O)OC(C)(C)C)ccc1NC(=O)c1cc(NC(=O)C2C(c3cc(Cl)cc(Cl)c3)C2(Cl)Cl)ccc1Cl (stereo not drawn) [c81]	A (50-100)	A (50-100)	A (80-100)
Cc1cc(N)ccc1NC(=O)c1cc(NC(=O)C2C(c3cc(Cl)c(Cl)c(Cl)c3)C2(Cl)Cl)ccc1Cl (stereo not drawn) [c84]	A (50-100)	A (50-100)	A (80-100)
N#Cc1ccc(NC(=O)c2cc(NC(=O)C3C(c4cc(Cl)cc(Cl)c4)C3(Cl)Cl)ccc2Cl)c(C#N)c1 (stereo not drawn) [c85]	A (50-100)	A (50-100)	A (80-100)
CN1C(=O)CCc2cc(NC(=O)c3cc(NC(=O)C4C(c5cc(Cl)cc(Cl)c5)C4(Cl)Cl)ccc3Cl)ccc21 (stereo not drawn) [c86]	A (50-100)	A (50-100)	A (80-100)
CN1CCCc2cc(NC(=O)c3cc(NC(=O)C4C(c5cc(Cl)cc(Cl)c5)C4(Cl)Cl)ccc3Cl)ccc21 (stereo not drawn) [c87]	A (50-100)	A (50-100)	A (80-100)
O=C(Nc1ccc2c(c1)CCCN2)c1cc(NC(=O)C2C(c3cc(Cl)cc(Cl)c3)C2(Cl)Cl)ccc1Cl (stereo not drawn) [c88]	A (50-100)	A (50-100)	A (80-100)

SMILES	Test A: Bioassay on BAW, percent mortality rating [1]	Test B: Bioassay on CL, percent mortality rating [2]	Test C: Bioassay on Yellow Fever Mosquito, mortality rating [3]
Cc1cc(N)ccc1NC(=O)c1cc(NC(=O)C2C(c3ccc(F)c(Cl)c3)C2(Cl)Cl)ccc1Cl (stereo not drawn) [c89]	A (50-100)	A (50-100)	A (80-100)
CC(=O)Nc1cccc(NC(=O)c2cc(NC(=O)C3C(c4cc(Cl)cc(Cl)c4)C3(Cl)Cl)ccc2Cl)n1 (stereo not drawn) [c90]	A (50-100)	A (50-100)	A (80-100)
N#Cc1ccc(NC(=O)c2cc(NC(=O)C3C(c4cc(Cl)cc(Cl)c4)C3(Cl)Cl)ccc2Cl)nc1N (stereo not drawn) [c91]	A (50-100)	A (50-100)	D (No activity noticed in this bioassay)
CS(=NC#N)c1ccc(NC(=O)c2cc(NC(=O)C3C(c4cc(Cl)cc(Cl)c4)C3(Cl)Cl)ccc2Cl)cc1 (stereo not drawn) [c92]	A (50-100)	A (50-100)	A (80-100)
O=C(Nc1ccc2c(ccn2CCF)c1)c1cc(NC(=O)C2C(c3cc(Cl)cc(Cl)c3)C2(Cl)Cl)ccc1Cl (stereo not drawn) [c93]	A (50-100)	A (50-100)	A (80-100)
O=C(Nc1ccc2[nH]c(-c3ccccc3)cc2c1)c1cc(NC(=O)C2C(c3cc(Cl)cc(Cl)c3)C2(Cl)Cl)ccc1Cl (stereo not drawn) [c94]	A (50-100)	A (50-100)	A (80-100)
Cc1cccc(NC(=O)c2cc(NC(=O)C3C(c4cc(Cl)cc(Cl)c4)C3(Cl)Cl)ccc2Cl)c1C#N (stereo not drawn) [c95]	A (50-100)	A (50-100)	A (80-100)
CN1Cc2ccc(NC(=O)c3cc(NC(=O)C4C(c5cc(Cl)cc(Cl)c5)C4(Cl)Cl)ccc3Cl)cc2C1 (stereo not drawn) [c96]	A (50-100)	A (50-100)	A (80-100)
CC(C)(C)OC(=O)Nc1cccc(NC(=O)c2cc(NC(=O)C3C(c4cc(Cl)cc(Cl)c4)C3(Cl)Cl)ccc2Cl)n1 (stereo not drawn) [c97]	A (50-100)	A (50-100)	D (No activity noticed in this bioassay)
CC(C)(C)OC(=O)Nc1cccc(NC(=O)c2cc(NC(=O)C3C(c4ccc(F)c(Cl)c4)C3(Cl)Cl)ccc2Cl)n1 (stereo not drawn) [c98]	A (50-100)	A (50-100)	A (80-100)
O=C(Nc1ccc2c(c1)CCN2)c1cc(NC(=O)C2C(c3cc(Cl)cc(Cl)c3)C2(Cl)Cl)ccc1Cl (stereo not drawn) [c99]	A (50-100)	A (50-100)	A (80-100)
CNc1ccc(NC(=O)c2cc(NC(=O)C3C(c4ccc(Br)c(Cl)c4)C3(Cl)Cl)ccc2Cl)c(C)c1 (stereo not drawn) [c100]	A (50-100)	A (50-100)	A (80-100)
Cc1cc(N)ccc1NC(=O)c1cc(NC(=O)C2C(c3ccc(Br)c(Cl)c3)C2(Cl)Cl)ccc1Cl (stereo not drawn) [c101]	A (50-100)	A (50-100)	A (80-100)
Cc1cc(NC(=O)OC(C)(C)C)ccc1NC(=O)c1cc(NC(=O)C2C(c3cc(Cl)cc(Br)c3)C2(Cl)Cl)ccc1Cl (stereo not drawn) [c102]	A (50-100)	A (50-100)	D (No activity noticed in this bioassay)
Cc1cc(N)ccc1NC(=O)c1cc(NC(=O)C2C(c3cc(Cl)cc(Br)c3)C2(Cl)Cl)ccc1Cl (stereo not drawn) [c103]	A (50-100)	A (50-100)	A (80-100)
CN1Cc2ccc(NC(=O)c3cc(NC(=O)C4C(c5cc(Cl)cc(Cl)c5)C4(Cl)Cl)ccc3Cl)cc2C1=O (stereo not drawn) [c104]	A (50-100)	A (50-100)	A (80-100)
CN1Cc2cc(NC(=O)c3cc(NC(=O)C4C(c5cc(Cl)cc(Cl)c5)C4(Cl)Cl)ccc3Cl)ccc2C1=O (stereo not drawn) [c105]	A (50-100)	A (50-100)	A (80-100)
